Test results reported in ChEMBL document CHEMBL3045112, “In vitro antimicrobial assessment of coumarin-based s-triazinyl piperazines” (2012).
In brackets after ≈: the same amount, converted by molar mass.

Columns and labels:
Assay type in all cases: functional
Pseudomonas aeruginosa [1] = test: Antibacterial activity against Pseudomonas aeruginosa after 24 hr by disk diffusion test
Candida albicans [2] = test: Antifungal activity against Candida albicans after 48 hr by agar plate method
Candida albicans [3] = test: Antifungal activity against Candida albicans after 48 hr by disk diffusion test
Staphylococcus aureus [4] = test: Antibacterial activity against Staphylococcus aureus after 24 hr by agar plate method
Staphylococcus aureus [5] = test: Antibacterial activity against Staphylococcus aureus after 24 hr by disk diffusion test
Aspergillus niger [6] = test: Antifungal activity against Aspergillus niger after 48 hr by agar plate method
Bacillus subtilis [7] = test: Antibacterial activity against Bacillus subtilis after 24 hr by agar plate method
Bacillus subtilis [8] = test: Antibacterial activity against Bacillus subtilis after 24 hr by disk diffusion test
Aspergillus niger [9] = test: Antifungal activity against Aspergillus niger after 48 hr by disk diffusion test
Escherichia coli [10] = test: Antibacterial activity against Escherichia coli after 24 hr by disk diffusion test
Escherichia coli [11] = test: Antibacterial activity against Escherichia coli after 24 hr by agar plate method
Pseudomonas aeruginosa [12] = test: Antibacterial activity against Pseudomonas aeruginosa after 24 hr by agar plate method

Row | Compound | MIC (Candida albicans [2]) | MIC (Staphylococcus aureus [4]) | MIC (Aspergillus niger [6]) | MIC (Bacillus subtilis [7]) | MIC (Escherichia coli [11]) | MIC (Pseudomonas aeruginosa [12]) | inhibition zone (IZ) (Pseudomonas aeruginosa [1]) | inhibition zone (IZ) (Candida albicans [3]) | inhibition zone (IZ) (Staphylococcus aureus [5]) | inhibition zone (IZ) (Bacillus subtilis [8]) | inhibition zone (IZ) (Aspergillus niger [9]) | inhibition zone (IZ) (Escherichia coli [10])
1 | Cc1cc(=O)oc2cc(Oc3nc(Nc4ccccc4)nc(N4CCN(C(C)C)CC4)n3)ccc12 | 100 µg/mL (≈ 212 µM) | 100 µg/mL (≈ 212 µM) | 100 µg/mL (≈ 212 µM) | 100 µg/mL (≈ 212 µM) | 100 µg/mL (≈ 212 µM) | 100 µg/mL (≈ 212 µM) | 18 mm | 19 mm | 19 mm | 18 mm | 19 mm | 18 mm
2 | CC(=O)N1CCN(c2nc(Nc3ccccc3)nc(Oc3ccc4c(C)cc(=O)oc4c3)n2)CC1 | 25 µg/mL (≈ 52.9 µM) | 25 µg/mL (≈ 52.9 µM) | 50 µg/mL (≈ 106 µM) | 50 µg/mL (≈ 106 µM) | 12.5 µg/mL (≈ 26.5 µM) | 25 µg/mL (≈ 52.9 µM) | 23 mm | 25 mm | 22 mm | 23 mm | 21 mm | 23 mm
3 | Cc1cc(=O)oc2cc(Oc3nc(Nc4ccccc4)nc(N4CCOCC4)n3)ccc12 | 50 µg/mL (≈ 116 µM) | 100 µg/mL (≈ 232 µM) | 50 µg/mL (≈ 116 µM) | 100 µg/mL (≈ 232 µM) | 50 µg/mL (≈ 116 µM) | 100 µg/mL (≈ 232 µM) | 17 mm | 22 mm | 20 mm | 20 mm | 21 mm | 22 mm
4 | CCN1CCN(c2nc(Nc3ccccc3)nc(Oc3ccc4c(C)cc(=O)oc4c3)n2)CC1 | 100 µg/mL (≈ 218 µM) | 100 µg/mL (≈ 218 µM) | 100 µg/mL (≈ 218 µM) | 50 µg/mL (≈ 109 µM) | 100 µg/mL (≈ 218 µM) | 100 µg/mL (≈ 218 µM) | 21 mm | 20 mm | 17 mm | 21 mm | 20 mm | 16 mm
5 | Cc1cc(=O)oc2cc(Oc3nc(Nc4ccccc4)nc(N4CCN(c5ncccn5)CC4)n3)ccc12 | 25 µg/mL (≈ 49.2 µM) | 6.25 µg/mL (≈ 12.3 µM) | 25 µg/mL (≈ 49.2 µM) | 12.5 µg/mL (≈ 24.6 µM) | 25 µg/mL (≈ 49.2 µM) | 50 µg/mL (≈ 98.3 µM) | 23 mm | 24 mm | 24 mm | 24 mm | 22 mm | 21 mm
6 | Cc1cc(=O)oc2cc(Oc3nc(Nc4ccccc4)nc(N4CCN(c5cccc(Cl)c5)CC4)n3)ccc12 | 12.5 µg/mL (≈ 23.1 µM) | 25 µg/mL (≈ 46.2 µM) | 25 µg/mL (≈ 46.2 µM) | 50 µg/mL (≈ 92.4 µM) | 25 µg/mL (≈ 46.2 µM) | 12.5 µg/mL (≈ 23.1 µM) | 24 mm | 25 mm | 22 mm | 23 mm | 23 mm | 22 mm
7 | O=c1cc(Oc2nc(Nc3ccccc3)nc(N3CCCCC3)n2)c2ccccc2o1 | 100 µg/mL (≈ 241 µM) | 100 µg/mL (≈ 241 µM) | 12.5 µg/mL (≈ 30.1 µM) | 50 µg/mL (≈ 120 µM) | 25 µg/mL (≈ 60.2 µM) | 100 µg/mL (≈ 241 µM) | 16 mm | 20 mm | 19 mm | 20 mm | 21 mm | 22 mm
8 | Cc1cc(=O)oc2cc(Oc3nc(Nc4ccccc4)nc(N4CCN(C)CC4)n3)ccc12 | 100 µg/mL (≈ 225 µM) | 100 µg/mL (≈ 225 µM) | 100 µg/mL (≈ 225 µM) | 100 µg/mL (≈ 225 µM) | 100 µg/mL (≈ 225 µM) | 100 µg/mL (≈ 225 µM) | 20 mm | 20 mm | 19 mm | 21 mm | 16 mm | 16 mm
9 | Cc1cc(=O)oc2cc(Oc3nc(Nc4ccccc4)nc(N4CCN(c5ccccn5)CC4)n3)ccc12 | 25 µg/mL (≈ 49.3 µM) | 12.5 µg/mL (≈ 24.6 µM) | 12.5 µg/mL (≈ 24.6 µM) | 12.5 µg/mL (≈ 24.6 µM) | 25 µg/mL (≈ 49.3 µM) | 50 µg/mL (≈ 98.5 µM) | 22 mm | 23 mm | 23 mm | 24 mm | 23 mm | 22 mm
10 | Cc1cc(=O)oc2cc(Oc3nc(Nc4ccccc4)nc(N4CCCCC4)n3)ccc12 | 50 µg/mL (≈ 116 µM) | 50 µg/mL (≈ 116 µM) | 12.5 µg/mL (≈ 29.1 µM) | 100 µg/mL (≈ 233 µM) | 25 µg/mL (≈ 58.2 µM) | 100 µg/mL (≈ 233 µM) | 21 mm | 22 mm | 21 mm | 19 mm | 22 mm | 22 mm
11 | Cc1cc(=O)oc2cc(Oc3nc(Nc4ccccc4)nc(N4CCN(c5cccc(Cl)c5Cl)CC4)n3)ccc12 | 12.5 µg/mL (≈ 21.7 µM) | 25 µg/mL (≈ 43.4 µM) | 12.5 µg/mL (≈ 21.7 µM) | 12.5 µg/mL (≈ 21.7 µM) | 12.5 µg/mL (≈ 21.7 µM) | 12.5 µg/mL (≈ 21.7 µM) | 24 mm | 25 mm | 24 mm | 25 mm | 23 mm | 23 mm

Further lines, with some results ahead:

Row | MIC (Candida albicans [2]) | MIC (Staphylococcus aureus [4]) | MIC (Aspergillus niger [6]) | MIC (Bacillus subtilis [7]) | MIC (Escherichia coli [11]) | MIC (Pseudomonas aeruginosa [12]) | Compound | inhibition zone (IZ) (Pseudomonas aeruginosa [1]) | inhibition zone (IZ) (Candida albicans [3]) | inhibition zone (IZ) (Staphylococcus aureus [5]) | inhibition zone (IZ) (Bacillus subtilis [8]) | inhibition zone (IZ) (Aspergillus niger [9]) | inhibition zone (IZ) (Escherichia coli [10])
12 | 12.5 µg/mL (≈ 25.3 µM) | 12.5 µg/mL (≈ 25.3 µM) | 12.5 µg/mL (≈ 25.3 µM) | 12.5 µg/mL (≈ 25.3 µM) | 50 µg/mL (≈ 101 µM) | 50 µg/mL (≈ 101 µM) | O=c1cc(Oc2nc(Nc3ccccc3)nc(N3CCN(c4ncccn4)CC3)n2)c2ccccc2o1 | 20 mm | 22 mm | 23 mm | 22 mm | 19 mm | 21 mm
13 | 100 µg/mL (≈ 225 µM) | 100 µg/mL (≈ 225 µM) | 100 µg/mL (≈ 225 µM) | 50 µg/mL (≈ 112 µM) | 100 µg/mL (≈ 225 µM) | 100 µg/mL (≈ 225 µM) | CCN1CCN(c2nc(Nc3ccccc3)nc(Oc3cc(=O)oc4ccccc34)n2)CC1 | 18 mm | 19 mm | 17 mm | 20 mm | 17 mm | 15 mm
14 | 100 µg/mL (≈ 232 µM) | 100 µg/mL (≈ 232 µM) | 100 µg/mL (≈ 232 µM) | 100 µg/mL (≈ 232 µM) | 100 µg/mL (≈ 232 µM) | 100 µg/mL (≈ 232 µM) | CN1CCN(c2nc(Nc3ccccc3)nc(Oc3cc(=O)oc4ccccc34)n2)CC1 | 17 mm | 17 mm | 16 mm | 20 mm | 14 mm | 16 mm
15 | 100 µg/mL (≈ 197 µM) | 100 µg/mL (≈ 197 µM) | 100 µg/mL (≈ 197 µM) | 100 µg/mL (≈ 197 µM) | 100 µg/mL (≈ 197 µM) | 100 µg/mL (≈ 197 µM) | Cc1cc(=O)oc2cc(Oc3nc(Nc4ccccc4)nc(N4CCN(c5ccccc5)CC4)n3)ccc12 | 15 mm | 18 mm | 17 mm | 20 mm | 17 mm | 17 mm
16 | 50 µg/mL (≈ 109 µM) | 25 µg/mL (≈ 54.5 µM) | 100 µg/mL (≈ 218 µM) | 100 µg/mL (≈ 218 µM) | 12.5 µg/mL (≈ 27.3 µM) | 50 µg/mL (≈ 109 µM) | CC(=O)N1CCN(c2nc(Nc3ccccc3)nc(Oc3cc(=O)oc4ccccc34)n2)CC1 | 22 mm | 20 mm | 23 mm | 20 mm | 18 mm | 22 mm
17 | 12.5 µg/mL (≈ 23.7 µM) | 50 µg/mL (≈ 94.9 µM) | 50 µg/mL (≈ 94.9 µM) | 25 µg/mL (≈ 47.4 µM) | 25 µg/mL (≈ 47.4 µM) | 25 µg/mL (≈ 47.4 µM) | O=c1cc(Oc2nc(Nc3ccccc3)nc(N3CCN(c4cccc(Cl)c4)CC3)n2)c2ccccc2o1 | 23 mm | 23 mm | 21 mm | 21 mm | 20 mm | 22 mm
18 | 100 µg/mL (≈ 218 µM) | 100 µg/mL (≈ 218 µM) | 25 µg/mL (≈ 54.5 µM) | 50 µg/mL (≈ 109 µM) | 100 µg/mL (≈ 218 µM) | 100 µg/mL (≈ 218 µM) | CC(C)N1CCN(c2nc(Nc3ccccc3)nc(Oc3cc(=O)oc4ccccc34)n2)CC1 | 18 mm | 17 mm | 20 mm | 18 mm | 21 mm | 18 mm
19 | 100 µg/mL (≈ 203 µM) | 100 µg/mL (≈ 203 µM) | 100 µg/mL (≈ 203 µM) | 100 µg/mL (≈ 203 µM) | 100 µg/mL (≈ 203 µM) | 100 µg/mL (≈ 203 µM) | O=c1cc(Oc2nc(Nc3ccccc3)nc(N3CCN(c4ccccc4)CC3)n2)c2ccccc2o1 | 15 mm | 16 mm | 17 mm | 17 mm | 15 mm | 16 mm
20 | 12.5 µg/mL (≈ 22.3 µM) | 25 µg/mL (≈ 44.5 µM) | 12.5 µg/mL (≈ 22.3 µM) | 12.5 µg/mL (≈ 22.3 µM) | 50 µg/mL (≈ 89.1 µM) | 12.5 µg/mL (≈ 22.3 µM) | O=c1cc(Oc2nc(Nc3ccccc3)nc(N3CCN(c4cccc(Cl)c4Cl)CC3)n2)c2ccccc2o1 | 23 mm | 22 mm | 22 mm | 23 mm | 20 mm | 21 mm
21 | 100 µg/mL (≈ 240 µM) | 100 µg/mL (≈ 240 µM) | 6.25 µg/mL (≈ 15 µM) | 100 µg/mL (≈ 240 µM) | 25 µg/mL (≈ 59.9 µM) | 100 µg/mL (≈ 240 µM) | O=c1cc(Oc2nc(Nc3ccccc3)nc(N3CCOCC3)n2)c2ccccc2o1 | 17 mm | 19 mm | 19 mm | 16 mm | 21 mm | 22 mm
22 | 25 µg/mL (≈ 50.7 µM) | 12.5 µg/mL (≈ 25.3 µM) | 12.5 µg/mL (≈ 25.3 µM) | 25 µg/mL (≈ 50.7 µM) | 25 µg/mL (≈ 50.7 µM) | 50 µg/mL (≈ 101 µM) | O=c1cc(Oc2nc(Nc3ccccc3)nc(N3CCN(c4ccccn4)CC3)n2)c2ccccc2o1 | 20 mm | 21 mm | 23 mm | 21 mm | 20 mm | 20 mm
